Data on four molecules can be found in PubChem BioAssay AID1963840 (Molecular Pharmacology Branch, DTP, NCI, 2024).
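Further: spheroids exposed to compounds for seven days; 100% = DMSO vehicle control viability.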

The first experiment concerns 695427-040-R-J1-PDC complex spheroid viability. Briefly: Anticancer human tumor 695427-040-R-J1-PDC patient-derived colon adenocarcinoma cell line growth inhibition [POLQ]. The note with it: second compound 3.16 µM; first compound 0.1 µM; stronger effect = lower value. The procedure, abridged: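 PDC + HUVEC + MSC complex spheroids; POLQ inhibitors ± partner drugs; top conc. at/near clinical Cmax, else 10 microM (SN-38 1 microM), half-log dilutions; 37 degrees C, 5% CO2.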
In general, viability, T/C refers to the ratio of treated to control. Regarding `CCc1cc2c(N3CCc4c(cc(Cn5ccnc5)cc4-c4cn(C)nc4C(F)(F)F)C3=O)cc(C)nc2c(OC)n1` + Cc1cccc(N(C)C(=O)C2C(O)CCN2c2nc(C)cc(C(F)(F)F)c2C#N)c1, the viability, T/C was 92.2%.
On to `CCc1cc2c(N3CCc4c(cc(Cn5ccnc5)cc4-c4cn(C)nc4C(F)(F)F)C3=O)ccnc2c(OC)n1` + Cc1cccc(N(C)C(=O)C2C(O)CCN2c2nc(C)cc(C(F)(F)F)c2C#N)c1, for which the viability, T/C is 94.9%.

The same experiment, now with this note: second compound 3.16 µM; first compound 0.316 µM; stronger effect = lower value.
Turning to `C=CC(=O)N1CCN(c2nc(=O)n(-c3c(C)ccnc3C(C)C)c3nc(-c4c(O)cccc4F)c(F)cc23)C(C)C1` (configuration not stated) + Cc1cccc(N(C)C(=O)C2C(O)CCN2c2nc(C)cc(C(F)(F)F)c2C#N)c1, the viability, T/C is 97.9%.
Take `CC(C)n1c(=O)n(C)c2cnc3cc(F)c(-c4ccc(OCCCN5CCCCC5)nc4)cc3c21` + Cc1cccc(N(C)C(=O)C2C(O)CCN2c2nc(C)cc(C(F)(F)F)c2C#N)c1: the viability, T/C is 102%.
With `CCc1cc2c(N3CCc4c(cc(Cn5ccnc5)cc4-c4cn(C)nc4C(F)(F)F)C3=O)cc(C)nc2c(OC)n1` + Cc1cccc(N(C)C(=O)C2C(O)CCN2c2nc(C)cc(C(F)(F)F)c2C#N)c1, the viability, T/C is 91.8%.
For `CCc1cc2c(N3CCc4c(cc(Cn5ccnc5)cc4-c4cn(C)nc4C(F)(F)F)C3=O)ccnc2c(OC)n1` + Cc1cccc(N(C)C(=O)C2C(O)CCN2c2nc(C)cc(C(F)(F)F)c2C#N)c1, the viability, T/C is 95.2%.

The same experiment, now with this note: second compound 3.16 µM; first compound 1 µM; stronger effect = lower value.
Take `C=CC(=O)N1CCN(c2nc(=O)n(-c3c(C)ccnc3C(C)C)c3nc(-c4c(O)cccc4F)c(F)cc23)C(C)C1` (configuration not stated) + Cc1cccc(N(C)C(=O)C2C(O)CCN2c2nc(C)cc(C(F)(F)F)c2C#N)c1: the viability, T/C is 93.4%.
The same measure, in the same setting: in the case of `CC(C)n1c(=O)n(C)c2cnc3cc(F)c(-c4ccc(OCCCN5CCCCC5)nc4)cc3c21` + Cc1cccc(N(C)C(=O)C2C(O)CCN2c2nc(C)cc(C(F)(F)F)c2C#N)c1 it was 98.5%; in that of `CCc1cc2c(N3CCc4c(cc(Cn5ccnc5)cc4-c4cn(C)nc4C(F)(F)F)C3=O)cc(C)nc2c(OC)n1` + Cc1cccc(N(C)C(=O)C2C(O)CCN2c2nc(C)cc(C(F)(F)F)c2C#N)c1, 106%; in that of `CCc1cc2c(N3CCc4c(cc(Cn5ccnc5)cc4-c4cn(C)nc4C(F)(F)F)C3=O)ccnc2c(OC)n1` + Cc1cccc(N(C)C(=O)C2C(O)CCN2c2nc(C)cc(C(F)(F)F)c2C#N)c1, 103%.

The experiment is the same for the next values; noted with them: second compound 3.16 µM; first compound 3.16 µM; stronger effect = lower value.
For the molecule `C=CC(=O)N1CCN(c2nc(=O)n(-c3c(C)ccnc3C(C)C)c3nc(-c4c(O)cccc4F)c(F)cc23)C(C)C1` (configuration not stated) + Cc1cccc(N(C)C(=O)C2C(O)CCN2c2nc(C)cc(C(F)(F)F)c2C#N)c1, the viability, T/C is 103%.
Take `CC(C)n1c(=O)n(C)c2cnc3cc(F)c(-c4ccc(OCCCN5CCCCC5)nc4)cc3c21` + Cc1cccc(N(C)C(=O)C2C(O)CCN2c2nc(C)cc(C(F)(F)F)c2C#N)c1: the viability, T/C was 98.2%.
Still for that read-out and setting: for `CCc1cc2c(N3CCc4c(cc(Cn5ccnc5)cc4-c4cn(C)nc4C(F)(F)F)C3=O)cc(C)nc2c(OC)n1` + Cc1cccc(N(C)C(=O)C2C(O)CCN2c2nc(C)cc(C(F)(F)F)c2C#N)c1 the value was 97.5%; for `CCc1cc2c(N3CCc4c(cc(Cn5ccnc5)cc4-c4cn(C)nc4C(F)(F)F)C3=O)ccnc2c(OC)n1` + Cc1cccc(N(C)C(=O)C2C(O)CCN2c2nc(C)cc(C(F)(F)F)c2C#N)c1, 99.8%.

The experiment is the same for the next values; noted with them: second compound 3.16 µM; first compound 10 µM; stronger effect = lower value.
With `C=CC(=O)N1CCN(c2nc(=O)n(-c3c(C)ccnc3C(C)C)c3nc(-c4c(O)cccc4F)c(F)cc23)C(C)C1` (configuration not stated) + Cc1cccc(N(C)C(=O)C2C(O)CCN2c2nc(C)cc(C(F)(F)F)c2C#N)c1, the viability, T/C was 107%.
Still for that read-out and setting: in the case of `CC(C)n1c(=O)n(C)c2cnc3cc(F)c(-c4ccc(OCCCN5CCCCC5)nc4)cc3c21` + Cc1cccc(N(C)C(=O)C2C(O)CCN2c2nc(C)cc(C(F)(F)F)c2C#N)c1 it was 67%; in that of `CCc1cc2c(N3CCc4c(cc(Cn5ccnc5)cc4-c4cn(C)nc4C(F)(F)F)C3=O)cc(C)nc2c(OC)n1` + Cc1cccc(N(C)C(=O)C2C(O)CCN2c2nc(C)cc(C(F)(F)F)c2C#N)c1, 108%.
As for `CCc1cc2c(N3CCc4c(cc(Cn5ccnc5)cc4-c4cn(C)nc4C(F)(F)F)C3=O)ccnc2c(OC)n1` + Cc1cccc(N(C)C(=O)C2C(O)CCN2c2nc(C)cc(C(F)(F)F)c2C#N)c1, the viability, T/C was 85.5%.

The experiment is the same for the next values; noted with them: second compound 10 µM; first compound 0.0316 µM; stronger effect = lower value.
Take `C=CC(=O)N1CCN(c2nc(=O)n(-c3c(C)ccnc3C(C)C)c3nc(-c4c(O)cccc4F)c(F)cc23)C(C)C1` (configuration not stated) + Cc1cccc(N(C)C(=O)C2C(O)CCN2c2nc(C)cc(C(F)(F)F)c2C#N)c1: the viability, T/C is 87.8%.
On to `CC(C)n1c(=O)n(C)c2cnc3cc(F)c(-c4ccc(OCCCN5CCCCC5)nc4)cc3c21` + Cc1cccc(N(C)C(=O)C2C(O)CCN2c2nc(C)cc(C(F)(F)F)c2C#N)c1, for which the viability, T/C is 93.5%.
On the same count and under the same terms, for `CCc1cc2c(N3CCc4c(cc(Cn5ccnc5)cc4-c4cn(C)nc4C(F)(F)F)C3=O)cc(C)nc2c(OC)n1` + Cc1cccc(N(C)C(=O)C2C(O)CCN2c2nc(C)cc(C(F)(F)F)c2C#N)c1 the value was 102%; for `CCc1cc2c(N3CCc4c(cc(Cn5ccnc5)cc4-c4cn(C)nc4C(F)(F)F)C3=O)ccnc2c(OC)n1` + Cc1cccc(N(C)C(=O)C2C(O)CCN2c2nc(C)cc(C(F)(F)F)c2C#N)c1, 98%.

The same experiment, now with this note: second compound 10 µM; first compound 0.1 µM; stronger effect = lower value.
As to `C=CC(=O)N1CCN(c2nc(=O)n(-c3c(C)ccnc3C(C)C)c3nc(-c4c(O)cccc4F)c(F)cc23)C(C)C1` (configuration not stated) + Cc1cccc(N(C)C(=O)C2C(O)CCN2c2nc(C)cc(C(F)(F)F)c2C#N)c1, the viability, T/C was 91.8%.
As for `CC(C)n1c(=O)n(C)c2cnc3cc(F)c(-c4ccc(OCCCN5CCCCC5)nc4)cc3c21` + Cc1cccc(N(C)C(=O)C2C(O)CCN2c2nc(C)cc(C(F)(F)F)c2C#N)c1, the viability, T/C was 99.9%.
In the case of `CCc1cc2c(N3CCc4c(cc(Cn5ccnc5)cc4-c4cn(C)nc4C(F)(F)F)C3=O)cc(C)nc2c(OC)n1` + Cc1cccc(N(C)C(=O)C2C(O)CCN2c2nc(C)cc(C(F)(F)F)c2C#N)c1, the viability, T/C was 98.7%.
As to `CCc1cc2c(N3CCc4c(cc(Cn5ccnc5)cc4-c4cn(C)nc4C(F)(F)F)C3=O)ccnc2c(OC)n1` + Cc1cccc(N(C)C(=O)C2C(O)CCN2c2nc(C)cc(C(F)(F)F)c2C#N)c1, the viability, T/C was 86.4%.

The same experiment, now with this note: second compound 10 µM; first compound 0.316 µM; stronger effect = lower value.
Take `C=CC(=O)N1CCN(c2nc(=O)n(-c3c(C)ccnc3C(C)C)c3nc(-c4c(O)cccc4F)c(F)cc23)C(C)C1` (configuration not stated) + Cc1cccc(N(C)C(=O)C2C(O)CCN2c2nc(C)cc(C(F)(F)F)c2C#N)c1: the viability, T/C is 87.5%.
As to `CC(C)n1c(=O)n(C)c2cnc3cc(F)c(-c4ccc(OCCCN5CCCCC5)nc4)cc3c21` + Cc1cccc(N(C)C(=O)C2C(O)CCN2c2nc(C)cc(C(F)(F)F)c2C#N)c1, the viability, T/C is 99.6%.
Same read-out and setting: in the case of `CCc1cc2c(N3CCc4c(cc(Cn5ccnc5)cc4-c4cn(C)nc4C(F)(F)F)C3=O)cc(C)nc2c(OC)n1` + Cc1cccc(N(C)C(=O)C2C(O)CCN2c2nc(C)cc(C(F)(F)F)c2C#N)c1 it was 87.8%; in that of `CCc1cc2c(N3CCc4c(cc(Cn5ccnc5)cc4-c4cn(C)nc4C(F)(F)F)C3=O)ccnc2c(OC)n1` + Cc1cccc(N(C)C(=O)C2C(O)CCN2c2nc(C)cc(C(F)(F)F)c2C#N)c1, 93.6%.

Still in this experiment, the particulars now being: second compound 10 µM; first compound 1 µM; stronger effect = lower value.
`C=CC(=O)N1CCN(c2nc(=O)n(-c3c(C)ccnc3C(C)C)c3nc(-c4c(O)cccc4F)c(F)cc23)C(C)C1` (configuration not stated) + Cc1cccc(N(C)C(=O)C2C(O)CCN2c2nc(C)cc(C(F)(F)F)c2C#N)c1: the viability, T/C is 101%.
With `CC(C)n1c(=O)n(C)c2cnc3cc(F)c(-c4ccc(OCCCN5CCCCC5)nc4)cc3c21` + Cc1cccc(N(C)C(=O)C2C(O)CCN2c2nc(C)cc(C(F)(F)F)c2C#N)c1, the viability, T/C is 101%.
Take `CCc1cc2c(N3CCc4c(cc(Cn5ccnc5)cc4-c4cn(C)nc4C(F)(F)F)C3=O)cc(C)nc2c(OC)n1` + Cc1cccc(N(C)C(=O)C2C(O)CCN2c2nc(C)cc(C(F)(F)F)c2C#N)c1: the viability, T/C is 95.4%.
With `CCc1cc2c(N3CCc4c(cc(Cn5ccnc5)cc4-c4cn(C)nc4C(F)(F)F)C3=O)ccnc2c(OC)n1` + Cc1cccc(N(C)C(=O)C2C(O)CCN2c2nc(C)cc(C(F)(F)F)c2C#N)c1, the viability, T/C was 97.8%.

The same experiment, now with this note: second compound 10 µM; first compound 3.16 µM; stronger effect = lower value.
Regarding `C=CC(=O)N1CCN(c2nc(=O)n(-c3c(C)ccnc3C(C)C)c3nc(-c4c(O)cccc4F)c(F)cc23)C(C)C1` (configuration not stated) + Cc1cccc(N(C)C(=O)C2C(O)CCN2c2nc(C)cc(C(F)(F)F)c2C#N)c1, the viability, T/C is 102%.
For the molecule `CC(C)n1c(=O)n(C)c2cnc3cc(F)c(-c4ccc(OCCCN5CCCCC5)nc4)cc3c21` + Cc1cccc(N(C)C(=O)C2C(O)CCN2c2nc(C)cc(C(F)(F)F)c2C#N)c1, the viability, T/C was 100%.
Same read-out and setting: for `CCc1cc2c(N3CCc4c(cc(Cn5ccnc5)cc4-c4cn(C)nc4C(F)(F)F)C3=O)cc(C)nc2c(OC)n1` + Cc1cccc(N(C)C(=O)C2C(O)CCN2c2nc(C)cc(C(F)(F)F)c2C#N)c1 the value was 93.9%; for `CCc1cc2c(N3CCc4c(cc(Cn5ccnc5)cc4-c4cn(C)nc4C(F)(F)F)C3=O)ccnc2c(OC)n1` + Cc1cccc(N(C)C(=O)C2C(O)CCN2c2nc(C)cc(C(F)(F)F)c2C#N)c1, 103%.

Staying with this experiment, now noted: second compound 10 µM; first compound 10 µM; stronger effect = lower value.
Regarding `C=CC(=O)N1CCN(c2nc(=O)n(-c3c(C)ccnc3C(C)C)c3nc(-c4c(O)cccc4F)c(F)cc23)C(C)C1` (configuration not stated) + Cc1cccc(N(C)C(=O)C2C(O)CCN2c2nc(C)cc(C(F)(F)F)c2C#N)c1, the viability, T/C was 105%.
On the same count and under the same terms, for `CC(C)n1c(=O)n(C)c2cnc3cc(F)c(-c4ccc(OCCCN5CCCCC5)nc4)cc3c21` + Cc1cccc(N(C)C(=O)C2C(O)CCN2c2nc(C)cc(C(F)(F)F)c2C#N)c1 the value was 55.7%; for `CCc1cc2c(N3CCc4c(cc(Cn5ccnc5)cc4-c4cn(C)nc4C(F)(F)F)C3=O)cc(C)nc2c(OC)n1` + Cc1cccc(N(C)C(=O)C2C(O)CCN2c2nc(C)cc(C(F)(F)F)c2C#N)c1, 89.7%.
Same read-out and setting: for `CCc1cc2c(N3CCc4c(cc(Cn5ccnc5)cc4-c4cn(C)nc4C(F)(F)F)C3=O)ccnc2c(OC)n1` + Cc1cccc(N(C)C(=O)C2C(O)CCN2c2nc(C)cc(C(F)(F)F)c2C#N)c1 the value was 83.6%.
